Measurements from patent US10774092B2 (SALK INSTITUTE FOR BIOLOGICAL STUDIES, priority 2014, dated 2020).

Tests used:
[1] = target: ULK1 (Homo sapiens, UniProt O75385); test: ULK1 inhibition assay (Table 1); format: biochemical; settings: * = tested as a mixture of regioisomers
[2] = system: PC3 prostate-cancer cell line stably expressing GFP-LC3; test: GFP-LC3 puncta high-throughput microscopy; format: cell-based, human; settings: control siRNA cells, 1 μM mTOR catalytic inhibitor for 4 hr
Procedure: At 48 hr after RNAi transfection, the cells were treated with 1 μM of the catalytic mTOR inhibitors AZD8055 or INK128 for 4 hr and assessed for the presence of GFP-LC3 puncta. The average number of GFPLC3 puncta and SD for each siRNA and drug treatment are shown. SRC, c-Src; c-Src kinase, CSK.
(§1) To test the ability of compound 14 to block autophagy and cell survival, initial studies were performed in A549 lung cancer cells, which are highly sensitive to mTOR inhibition. […] Next, we genetically assessed the requirement for ULK1 versus other kinases inhibited by compound 14 to induce autophagy after pharmacological mTOR inhibition. A robust high-throughput microscopy method for quantifying GFP-LC3 puncta was established using a PC3 prostate-cancer cell line stably expressing a GFP-LC3 construct. Using this assay, we performed a focused RNAi analysis of the top 20 kinases identified in the DiscovRx screen as best binding to compound 14. […] Strikingly, of the 18 kinases tested, only one kinase siRNA, ULK1, nearly fully abolished the LC3 puncta induced by the mTOR inhibitors (FIG. 9D).

[3] = system: A549 lung cancer cells; test: Cyto-ID autophagy dye detection of autophagic vacuoles; format: cell-based; settings: AZD8055 alone
Procedure: FIG. 9E is an immunoflourescence imaging of A549 cells treated in the presence or absence of 5 μM compound 14 for 2 hr followed by 4 μM of the mTOR catalytic inhibitor AZD8055 for 24 hr. Autophagic vacuoles were detected using the Cyto-ID autophagy detection kit and are visualized in green, while cell nuclei were counterstained by DAPI and are visualized in blue.
as §1

Sequence of ULK1 (O75385 whole entry, looked up): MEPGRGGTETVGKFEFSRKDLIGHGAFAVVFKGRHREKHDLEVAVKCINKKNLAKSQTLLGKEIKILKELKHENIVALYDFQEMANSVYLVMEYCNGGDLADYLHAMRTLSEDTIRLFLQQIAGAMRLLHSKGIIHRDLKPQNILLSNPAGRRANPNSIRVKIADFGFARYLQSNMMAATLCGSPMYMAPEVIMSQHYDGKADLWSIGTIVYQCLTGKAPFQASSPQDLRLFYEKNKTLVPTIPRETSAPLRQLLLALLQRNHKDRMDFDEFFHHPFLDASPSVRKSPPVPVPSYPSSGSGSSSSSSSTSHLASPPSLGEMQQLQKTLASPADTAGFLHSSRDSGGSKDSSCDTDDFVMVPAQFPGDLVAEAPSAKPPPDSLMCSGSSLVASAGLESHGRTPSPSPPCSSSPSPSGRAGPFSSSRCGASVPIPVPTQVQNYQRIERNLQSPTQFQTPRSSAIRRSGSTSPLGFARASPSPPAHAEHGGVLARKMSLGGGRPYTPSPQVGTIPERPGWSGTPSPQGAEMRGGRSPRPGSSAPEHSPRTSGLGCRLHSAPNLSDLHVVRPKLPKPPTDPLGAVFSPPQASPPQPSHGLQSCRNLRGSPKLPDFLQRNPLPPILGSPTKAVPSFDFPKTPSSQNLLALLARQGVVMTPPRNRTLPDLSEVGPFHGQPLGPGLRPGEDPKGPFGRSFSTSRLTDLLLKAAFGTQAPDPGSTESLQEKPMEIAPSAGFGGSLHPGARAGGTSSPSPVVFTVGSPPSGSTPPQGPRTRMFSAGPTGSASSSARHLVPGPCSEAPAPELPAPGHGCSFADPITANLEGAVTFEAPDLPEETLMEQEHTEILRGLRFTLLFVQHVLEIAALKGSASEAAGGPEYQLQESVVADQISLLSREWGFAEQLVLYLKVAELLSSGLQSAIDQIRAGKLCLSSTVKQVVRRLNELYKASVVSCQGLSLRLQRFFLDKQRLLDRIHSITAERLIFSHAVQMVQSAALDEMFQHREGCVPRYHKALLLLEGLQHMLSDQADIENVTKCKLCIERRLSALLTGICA

SMILES | IC50 [1] [nM] | further results
CNS(=O)(=O)c1ccccc1Nc1nc(Nc2cc(OC)c(OC)c(OC)c2)ncc1Br [Example 237, 2-((5-bromo-2-((3,4,5-trimethoxyphenyl)amino)pyrimidin-4-yl)amino)-N-methylbenzenesulfonamide] | 200 to 2000 | 
C[C@@H]1COCCN1c1nc(Nc2ccc3c(c2)CCC(=O)N3)ncc1C(F)(F)F [Example 247, (R)-6-((4-(3-methylmorpholino)-5-(trifluoromethyl)pyrimidin-2-yl)amino)-3,4-dihydroquinolin-2(1H)-one] | < 200 | 
COC(=O)[C@@H]1CCCN1c1nc(Nc2ccc3c(c2)CCC(=O)N3)ncc1C(F)(F)F [Example 227, Methyl (2-((2-oxo-1,2,3,4-tetrahydroquinolin-6-yl)amino)-5-(trifluoromethyl)pyrimidin-4-yl)-L-prolinate] | 200 to 2000 | 
Nc1ccc(Nc2ncc(C(F)(F)F)c(NC3CC3)n2)cc1 [Example 304a, N2-(4-aminophenyl)-N4-cyclopropyl-5-(trifluoromethyl)pyrimidine-2,4-diamine] | < 200 | 
FC(F)(F)c1cnc(NCc2cccc3ccccc23)nc1NC1CC1 [Example 262, N4-cyclopropyl-N2-(naphthalen-1-ylmethyl)-5-(trifluoromethyl)pyrimidine-2,4-diamine] | > 2000 | 
FC(F)(F)c1cnc(Nc2ccc3[nH]ccc3c2)nc1NC1CC1 [Example 206, N4-cyclopropyl-N2-(1H-indol-5-yl)-5-(trifluoromethyl) pyrimidine-2,4-diamine] | < 200 | 
COc1ccc(-c2ccc3c(N4CCOC[C@@H]4C)nc(N4CCOC[C@@H]4C)nc3n2)cc1CO [AZD8055, (5-(2,4-bis((S)-3-methylmorpholino)pyrido[2,3-d]pyrimidin-7-yl)-2-methoxyphenyl)methanol, reference compound] |  | induction in GFP-LC3 puncta formation [2]: 2 fold; autophagy induction (Cyto-ID dye accumulation) [3]: induced robust autophagy
O=C1CCc2cc(Nc3ncc(C(F)(F)F)c(NCCO)n3)ccc2N1 [Example 197, 6-((4-((2-hydroxyethyl)amino)-5-(trifluoromethyl)pyrimidin-2-yl)amino)-3,4-dihydroquinolin-2(1H)-one] | < 200 | 
FC1(F)Oc2ccc(Nc3ncc(C(F)(F)F)c(NC4CC4)n3)cc2O1 [Example 258, N4-cyclopropyl-N2-(2,2-difluorobenzo[d][1,3]dioxol-5-yl)-5-(trifluoromethyl)pyrimidine-2,4-diamine] | > 2000 | 
CNC(=O)c1ccccc1Nc1nc(Nc2cnc3[nH]ccc3c2)ncc1C(F)(F)F [Example 201, 2-((2-((1H-pyrrolo[2,3-b]pyridin-5-yl)amino)-5-(trifluoromethyl)pyrimidin-4-yl)amino)-N-methylbenzamide] | < 200 | 
FC(F)(F)c1cnc(Nc2ccc3nn[nH]c3c2)nc1NC1CC1 [Example 188, N2-(1H-benzo[d][1,2,3]triazol-6-yl)-N4-cyclopropyl-5-(trifluoromethyl)pyrimidine-2,4-diamine] | < 200 | 
CCC(=O)c1ccccc1Oc1nc(Nc2cc(OC)c(OC)c(OC)c2)ncc1Br [Example 260, 1-(2-((5-bromo-2-((3,4,5-trimethoxyphenyl)amino)pyrimidin-4-yl)oxy)phenyl)propan-1-one] | < 200 | 
O=C1CCc2cc(Nc3ncc(C(F)(F)F)c(N4CC(F)(F)C4)n3)ccc2N1 [Example 215, 6-((4-(3,3-difluoroazetidin-1-yl)-5-(trifluoromethyl)pyrimidin-2-yl)amino)-3,4-dihydroquinolin-2(1H)-one] | < 200 | 
FC(F)(F)c1cnc(Nc2ccc3nc[nH]c3c2)nc1Nc1cc(C2CCC2)[nH]n1 [Example 297, N2-(1H-benzo[d]imidazol-6-yl)-N4-(5-cyclobutyl-1H-pyrazol-3-yl)-5-(trifluoromethyl)pyrimidine-2,4-diamine] | < 200 | 
O=C1CCc2cc(Nc3ncc(C(F)(F)F)c(Nc4ccc5[nH]ncc5c4)n3)ccc2N1 [Example 185, 6-((4-((1H-indazol-5-yl)amino)-5-(trifluoromethyl)pyrimidin-2-yl)amino)-3,4-dihydroquinolin-2(1H)-one] | < 200 | 
O=C1CCc2cc(Nc3ncc(C(F)(F)F)c(NCC4CC4)n3)ccc2N1 [Example 216, 6-((4-((cyclopropylmethyl)amino)-5-(trifluoromethyl)pyrimidin-2-yl)amino)-3,4-dihydroquinolin-2(1H)-one] | < 200 | 
O=C1CCc2cc(Nc3ncc(C(F)(F)F)c(Nc4cc(C5CCC5)[nH]n4)n3)ccc2N1 [Example 271, 6-((4-((5-cyclobutyl-1H-pyrazol-3-yl)amino)-5-(trifluoromethyl)pyrimidin-2-yl)amino)-3,4-dihydroquinolin-2(1H)-one] | < 200 | 
FC(F)(F)c1cnc(Nc2cnc3ccccc3c2)nc1NC1CC1 [Example 275, N4-cyclopropyl-N2-(quinolin-3-yl)-5-(trifluoromethyl) pyrimidine-2,4-diamine] | < 200 | 
COC(=O)CNc1nc(Nc2ccc3c(c2)CCC(=O)N3)ncc1C(F)(F)F [Example 218, Methyl (2-((2-oxo-1,2,3,4-tetrahydroquinolin-6-yl)amino)-5-(trifluoromethyl)pyrimidin-4-yl)glycinate] | > 2000 | 
CC1CN1c1nc(Nc2ccc3c(c2)CCC(=O)N3)ncc1C(F)(F)F (stereo not shown) [Example 183a, 6-((4-(2-methylaziridin-1-yl)-5-(trifluoromethyl)pyrimidin-2-yl)amino)-3,4-dihydroquinolin-2(1H)-one] | > 2000 | 
FC(F)(F)c1cnc(Nc2ccc3c(c2)OCCCO3)nc1NC1CC1 [Example 190, N4-cyclopropyl-N2-(3,4-dihydro-2H-benzo[b][1,4]dioxepin-7-yl)-5-(trifluoromethyl)pyrimidine-2,4-diamine] | < 200 | 
FC(F)(F)c1cnc(Nc2ccc3c(c2)OCO3)nc1NC1CC1 [Example 213, N2-(benzo[d][1,3]dioxol-5-yl)-N4-cyclopropyl-5-(trifluoromethyl)pyrimidine-2,4-diamine] | < 200 | 
CCONc1nc(Nc2ccc3c(c2)CCC(=O)N3)ncc1C(F)(F)F [Example 219, 6-((4-(ethoxyamino)-5-(trifluoromethyl)pyrimidin-2-yl)amino)-3,4-dihydroquinolin-2(1H)-one] | > 2000 | 
COc1cc(Nc2ncc(Br)c(NC3CC3)n2)cc(OC)c1OC [Example 186, 5-bromo-N4-cyclopropyl-N2-(3,4,5-trimethoxyphenyl)pyrimidine-2,4-diamine] | < 200 | 
FC(F)(F)c1cnc(Nc2cnc3[nH]ccc3c2)nc1NC1COC1 [Example 194, N4-(oxetan-3-yl)-N2-(1H-pyrrolo[2,3-b]pyridin-5-yl)-5-(trifluoromethyl)pyrimidine-2,4-diamine] | < 200 | 
O=c1[nH]c2ccc(Nc3ncc(Br)c(NC4CC4)n3)cc2[nH]1 [Example 236, 5-((5-bromo-4-(cyclopropylamino)pyrimidin-2-yl)amino)-1,3-dihydro-2H-benzo[d]imidazol-2-one] | < 200 | 
CC1(Nc2nc(Nc3ccc4c(c3)CCC(=O)N4)ncc2C(F)(F)F)COC1 [Example 220a, 6-((4-((3-methyloxetan-3-yl)amino)-5-(trifluoromethyl)pyrimidin-2-yl)amino)-3,4-dihydroquinolin-2(1H)-one] | > 2000 | 
O=C1CCc2cc(Nc3ncc(C(=O)O)c(NC4CC4)n3)ccc2N1 [Example 286, 4-(cyclopropylamino)-2-((2-oxo-1,2,3,4-tetrahydroquinolin-6-yl)amino)pyrimidine-5-carboxylic Acid] | > 2000 | 
CC(C)n1nc(-c2ccc3oc(N)nc3c2)c2c(N)ncnc21 [INK128, 3-(2-amino-5-benzoxazolyl)-1-(1-methylethyl)-1H-pyrazolo[3,4-d]pyrimidin-4-amine] |  | induction in GFP-LC3 puncta formation [2]: 2 fold
O=C(C1CC1)N(C(=O)C1CC1)c1ccc(Nc2ncc(C(F)(F)F)c(NC3CC3)n2)cc1 [Example 311, N-(cyclopropanecarbonyl)-N-(4-((4-(cyclopropylamino)-5-(trifluoromethyl)pyrimidin-2-yl)amino)phenyl)cyclopropanecarboxamide] | < 200 | 
